In patent US20180201592A1, “2-AMINO-1,3,4-THIADIAZINE AND 2-AMINO-1,3,4-OXADIAZINE BASED ANTIFUNGAL AGENTS” (F2G Limited, priority 2015, published 2018):
≈ marks a conversion by molar mass, not a printed value. Like-named read-outs stand apart in the source and are kept apart here.

Key:
[1] = system: Aspergillus fumigatus; assay: Minimum inhibitory concentration, YAG medium; format: cell-based; conditions: banded MIC grade; for MIC: Aspergillus fumigatus, YAG media
Summary of the method: (§1)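 Growth was read as optical density at 485 nm after 24 hrs at 35° C, and the MIC taken as the lowest drug concentration cutting growth by >70% relative to drug-free wells. Plates held doubling dilutions (50-0.05 mg/L) with 1-2×10^4 cfu/mL spores in YAG medium.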

[2] = system: C. parapsilosis; assay: Minimum inhibitory concentration, RPMI medium; format: cell-based; conditions: banded MIC grade; for MIC: Lodderomyces parapsilosis, RPMI media
Summary of the method: (§2)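 Compound stock was made at 5 mg/mL in DMSO, diluted in sterile water and serially doubled in water, then tested in RPMI 1640 medium. Plates were incubated 24-48 hrs at 35° C, and growth was scored as optical density at 485 nm.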

[3] = system: C. tropicalis; assay: Minimum inhibitory concentration, RPMI medium; format: cell-based; conditions: banded MIC grade; for MIC: Candida tropicalis, RPMI media
Summary of the method: as §2

[4] = system: C. albicans; assay: Minimum inhibitory concentration, RPMI medium; format: cell-based; conditions: banded MIC grade; for MIC: Candida albicans, RPMI media
Summary of the method: as §2

[5] = system: A. fumigatus 210; assay: Minimum inhibitory concentration, YAG medium; format: cell-based, Aspergillus fumigatus; conditions: banded MIC grade; for MIC: Aspergillus fumigatus, 210, YAG media
Summary of the method: as §1

[6] = system: Aspergillus terreus; assay: Minimum inhibitory concentration, YAG medium; format: cell-based; conditions: banded MIC grade; for MIC: Aspergillus terreus, YAG media
Summary of the method: (§3)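 Compound from a 5 mg/mL DMSO stock was further diluted in sterile water, then serially doubled in water and plated with Aspergillus spp. spores. After 24 hrs at 35° C, growth was monitored by optical density at 485 nm; MICs are given in mg/L.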

[7] = system: Aspergillus niger; assay: Minimum inhibitory concentration, YAG medium; format: cell-based; conditions: banded MIC grade; for MIC: Aspergillus niger, YAG media
Summary of the method: as §3

[8] = system: Aspergillus flavus; assay: Minimum inhibitory concentration, YAG medium; format: cell-based; conditions: banded MIC grade; for MIC: Aspergillus flavus, YAG media
Summary of the method: as §3

[9] = system: A. terreus 49; assay: Minimum inhibitory concentration, YAG medium; format: cell-based, Aspergillus terreus; conditions: banded MIC grade; for MIC: Aspergillus terreus, 49, YAG media
Summary of the method: as §3

[10] = read-out: MIC grade C. PARAPSILOSIS
[11] = read-out: MIC grade, C. PARAPSILOSIS, RPMI media
[12] = read-out: MIC grade C. ALBICANS
[13] = read-out: MIC grade, C. ALBICANS, RPMI media

Row | SMILES | MIC grade, A. FUMIGATUS, YAG media [1] | MIC grade, C. PARAPSILOSIS, RPMI media [2] | MIC grade, C. TROPICALIS, RPMI media [3] | MIC grade, C. ALBICANS, RPMI media [4] | MIC grade, A. FUMIGATUS 210, YAG media [5] | MIC grade, A. TERREUS, YAG media [6] | MIC grade, A. NIGER, YAG media [7] | MIC grade, A. FLAVUS, YAG media [8] | MIC grade, A. TERREUS 49, YAG media [9] | MIC [1] [µg/mL] | MIC [2, 10] [µg/mL] | MIC [2, 11] [µg/mL] | MIC [3] [µg/mL] | MIC [4, 12] [µg/mL] | MIC [4, 13] [µg/mL] | MIC [5] [µg/mL] | MIC [6] [µg/mL] | MIC [7] [µg/mL] | MIC [8] [µg/mL] | MIC [9] [µg/mL]
1 | COc1ccc(CCCOCCC2=NN=C(N)SC2)cc1 | 2 (2: 1-5 mg/L) | 3 (3: 1-5 mg/L) | 2 (2: 5-20 mg/L) | 2 (2: 5-20 mg/L) | 2 (2: 1-5 mg/L) | 2 (2: 1-5 mg/L) | 2 (2: 1-5 mg/L) | 2 (2: 1-5 mg/L) | 2 (2: 1-5 mg/L) | – | – | – | – | – | – | – | – | – | – | –
2 | NC1=NN=C(CCOCCCc2ccccc2)CS1 | 4 (4: <0.2 mg/L) | 4 (4: <1 mg/L) | 3 (3: 1-5 mg/L) | 4 (4: <1 mg/L) | 4 (4: <0.2 mg/L) | 4 (4: <0.2 mg/L) | 4 (4: <0.2 mg/L) | 4 (4: <0.2 mg/L) | 4 (4: <0.2 mg/L) | – | – | – | – | – | – | – | – | – | – | –
3 | COCCCCOCCC1=NN=C(N)SC1 | 3 (3: 0.2-1 mg/L) | 3 (3: 1-5 mg/L) | 2 (2: 5-20 mg/L) | 3 (3: 1-5 mg/L) | 3 (3: 0.2-1 mg/L) | 3 (3: 0.2-1 mg/L) | 3 (3: 0.2-1 mg/L) | 3 (3: 0.2-1 mg/L) | 3 (3: 0.2-1 mg/L) | – | – | – | – | – | – | – | – | – | – | –
4 | CCCCCOc1ccc(CCC2=NN=C(N)SC2)cc1 | 1 (1: ≥5 mg/L) | 3 (3: 1-5 mg/L) | 3 (3: 1-5 mg/L) | 1 (1: ≥20 mg/L) | 1 (1: ≥5 mg/L) | 2 (2: 1-5 mg/L) | 3 (3: 0.2-1 mg/L) | 3 (3: 0.2-1 mg/L) | 3 (3: 0.2-1 mg/L) | – | – | – | – | – | – | – | – | – | – | –
5 | NC1=NN=C(CCCCOCc2ccccc2)CS1 | 4 (4: <0.2 mg/L) | 4 (4: <1 mg/L) | 4 (4: <1 mg/L) | 4 (4: <1 mg/L) | 4 (4: <0.2 mg/L) | 4 (4: <0.2 mg/L) | 4 (4: <0.2 mg/L) | 4 (4: <0.2 mg/L) | 4 (4: <0.2 mg/L) | – | – | – | – | – | – | – | – | – | – | –
6 | CCc1cccc(OCCCCCC2=NN=C(N)SC2)c1 | 4 (4: <0.2 mg/L) | 4 (4: <1 mg/L) | 4 (4: <1 mg/L) | 4 (4: <1 mg/L) | 4 (4: <0.2 mg/L) | 4 (4: <0.2 mg/L) | 4 (4: <0.2 mg/L) | 4 (4: <0.2 mg/L) | 4 (4: <0.2 mg/L) | – | – | – | – | – | – | – | – | – | – | –
7 | CCc1ccc(OCCCCCC2=NN=C(N)SC2)cc1 | 3 (3: 0.2-1 mg/L) | 4 (4: <1 mg/L) | 4 (4: <1 mg/L) | 4 (4: <1 mg/L) | 3 (3: 0.2-1 mg/L) | 4 (4: <0.2 mg/L) | 4 (4: <0.2 mg/L) | 4 (4: <0.2 mg/L) | 4 (4: <0.2 mg/L) | – | – | – | – | – | – | – | – | – | – | –
8 | CCCCOC(=O)c1ccc(C2=NN=C(N)SC2)cc1 | 3 (3: 0.2-1 mg/L) | 1 (1: ≥20 mg/L) | 1 (1: ≥20 mg/L) | 1 (1: ≥20 mg/L) | 3 (3: 0.2-1 mg/L) | 2 (2: 1-5 mg/L) | 3 (3: 0.2-1 mg/L) | 3 (3: 0.2-1 mg/L) | 2 (2: 1-5 mg/L) | – | – | – | – | – | – | – | – | – | – | –
9 | CN1N=C(N)SC=C1c1ccc(C#N)cc1 [4-(2-amino-4-methyl-1,3,4-thiadiazin-5-yl)benzonitrile] | – | – | – | – | – | – | – | – | – | 0.2 to 1 (≈ 0.868 to 4.34 µM) | 1 to 5 (≈ 4.34 to 21.7 µM) | 1 to 5 (≈ 4.34 to 21.7 µM) | 5 to 20 (≈ 21.7 to 86.8 µM) | < 1 | 1 to 5 (≈ 4.34 to 21.7 µM) | < 0.2 | < 0.2 | < 0.2 | < 0.2 | < 0.2
10 | COCCCCCN1N=C(N)SC=C1C [4-(5-methoxypentyl)-5-methyl-1,3,4-thiadiazin-2-amine] | – | – | – | – | – | – | – | – | – | ≥ 5 | ≥ 20 | 5 to 20 (≈ 21.8 to 87.2 µM) | ≥ 20 | ≥ 20 | ≥ 20 | 1 to 5 (≈ 4.36 to 21.8 µM) | 1 to 5 (≈ 4.36 to 21.8 µM) | ≥ 5 | 1 to 5 (≈ 4.36 to 21.8 µM) | 1 to 5 (≈ 4.36 to 21.8 µM)
11 | Cc1ccc(C2=CSC(N)=NN2C)cc1 [4-methyl-5-(p-tolyl)-1,3,4-thiadiazin-2-amine] | – | – | – | – | – | – | – | – | – | < 0.2 | ≥ 20 | 1 to 5 (≈ 4.56 to 22.8 µM) | ≥ 20 | < 1 | 5 to 20 (≈ 22.8 to 91.2 µM) | < 0.2 | < 0.2 | 0.2 to 1 (≈ 0.912 to 4.56 µM) | 0.2 to 1 (≈ 0.912 to 4.56 µM) | < 0.2
12 | CN1N=C(N)SC=C1c1ccc(Cl)c(Cl)c1 [5-(3,4-dichlorophenyl)-4-methyl-1,3,4-thiadiazin-2-amine] | – | – | – | – | – | – | – | – | – | 1 to 5 (≈ 3.65 to 18.2 µM) | ≥ 20 | ≥ 20 | ≥ 20 | 5 to 20 (≈ 18.2 to 72.9 µM) | ≥ 20 | 1 to 5 (≈ 3.65 to 18.2 µM) | 1 to 5 (≈ 3.65 to 18.2 µM) | 1 to 5 (≈ 3.65 to 18.2 µM) | ≥ 5 | 0.2 to 1 (≈ 0.729 to 3.65 µM)
13 | CCCCOc1ccc(C2=CSC(N)=NN2C)cc1 [5-(4-butoxyphenyl)-4-methyl-1,3,4-thiadiazin-2-amine] | – | – | – | – | – | – | – | – | – | < 0.2 | < 1 | 1 to 5 (≈ 3.6 to 18 µM) | 1 to 5 (≈ 3.6 to 18 µM) | 1 to 5 (≈ 3.6 to 18 µM) | ≥ 20 | < 0.2 | 0.2 to 1 (≈ 0.721 to 3.6 µM) | < 0.2 | < 0.2 | 0.2 to 1 (≈ 0.721 to 3.6 µM)
14 | CN1N=C(N)SC=C1c1ccc(Cl)cc1 [5-(4-chlorophenyl)-4-methyl-1,3,4-thiadiazin-2-amine] | – | – | – | – | – | – | – | – | – | < 0.2 | < 1 | < 1 | 5 to 20 (≈ 20.9 to 83.4 µM) | 1 to 5 (≈ 4.17 to 20.9 µM) | 1 to 5 (≈ 4.17 to 20.9 µM) | < 0.2 | < 0.2 | < 0.2 | < 0.2 | < 0.2
15 | COc1ccc(C2=CSC(N)=NN2C)cc1 [5-(4-methoxyphenyl)-4-methyl-1,3,4-thiadiazin-2-amine] | – | – | – | – | – | – | – | – | – | < 0.2 | < 1 | < 1 | 1 to 5 (≈ 4.25 to 21.2 µM) | < 1 | < 1 | < 0.2 | < 0.2 | < 0.2 | < 0.2 | < 0.2
16 | CN1N=C(N)SC=C1c1cc2ccccc2o1 [5-(benzofuran-2-yl)-4-methyl-1,3,4-thiadiazin-2-amine] | – | – | – | – | – | – | – | – | – | 1 to 5 (≈ 4.08 to 20.4 µM) | 5 to 20 (≈ 20.4 to 81.5 µM) | ≥ 20 | ≥ 20 | 5 to 20 (≈ 20.4 to 81.5 µM) | ≥ 20 | 0.2 to 1 (≈ 0.815 to 4.08 µM) | 0.2 to 1 (≈ 0.815 to 4.08 µM) | 1 to 5 (≈ 4.08 to 20.4 µM) | 1 to 5 (≈ 4.08 to 20.4 µM) | 0.2 to 1 (≈ 0.815 to 4.08 µM)
